In brackets after ≈: the same amount, converted by molar mass. Where a name gives a salt, the structure may show the parent alone.
Columns and labels:
Format in all cases: cell-based
E. coli UBMS 88-1 Tet B = assay: microbe, parasite or virus in culture; details: E. coli UBMS 88-1 Tet B; 18 hours at 35° C.
[1] = test system: E. coli MC 4100 Tet sens.; assay: MIC, agar dilution
E. coli PRP1 Tet A = assay: microbe, parasite or virus in culture; details: E. coli PRP1 Tet A
E. coli J3272 Tet C = assay: microbe, parasite or virus in culture; details: E. coli J3272 Tet C
E. coli UBMS 89-1 Tet M = assay: microbe, parasite or virus in culture; details: E. coli UBMS 89-1 Tet M
[2] = test system: E. coli UBMS 89-2 Tet sens.; assay: MIC, agar dilution; details: E. coli UBMS 89-2 Tet sens.
E. coli J2175 = assay: MIC, agar dilution; details: E. coli J2175
E. coli BAJ9003 IMP MUT = assay: microbe, parasite or virus in culture; details: E. coli BAJ9003 IMP MUT
E. coli UBMS 90-4 Tet M = assay: microbe, parasite or virus in culture; details: E. coli UBMS 90-4 Tet M
E. coli UBMS 90-5 = assay: MIC, agar dilution
E. coli #311 (MP) = assay: MIC, agar dilution; details: E. coli #311 (MP)
E. coli ATCC 25922 = assay: MIC, agar dilution; details: E. coli ATCC 25922
E. coli J3272 Tet D = assay: microbe, parasite or virus in culture; details: E. coli J3272 Tet D
S. mariescens FPOR 8733 = assay: MIC, agar dilution
[3] = test system: Ps. acruginosa ATCC 27853; assay: MIC, agar dilution; details: Ps. acruginosa ATCC 27853
S. aureus NEMC 8769 = assay: MIC, agar dilution; details: S. aureus NEMC 8769
S. aureus UBMS 88-4 = assay: MIC, agar dilution; details: S. aureus UBMS 88-4
[4] = test system: S. aureus UBMS 88-5 Tet M; assay: microbe, parasite or virus in culture; details: S. aureus UBMS 88-5 Tet M
[5] = test system: S. aureus UBMS 88-7 Tet K; assay: microbe, parasite or virus in culture; details: S. aureus UBMS 88-7 Tet K
[6] = test system: S. aureus UBMS 90-1 Tet M; assay: microbe, parasite or virus in culture; details: S. aureus UBMS 90-1 Tet M
S. aureus UBMS 90-3 = assay: MIC, agar dilution; details: S. aureus UBMS 90-3
[7] = test system: S. aureus UBMS 90-2 Tet M; assay: microbe, parasite or virus in culture; details: S. aureus UBMS 90-2 Tet M
S. aureus IVES 2943 = assay: MIC, agar dilution; details: S. aureus IVES 2943
S. aureus SMITH (MP) = assay: MIC, agar dilution; details: S. aureus SMITH (MP)
S. aureus IVES 1 983 = assay: MIC, agar dilution; details: S. aureus IVES 1 983
S. aureus ATCC 29213 = assay: MIC, agar dilution; details: S. aureus ATCC 29213
[8] = test system: S. hemolyticus AVHAH 88-3; assay: MIC, agar dilution; details: S. hemolyticus AVHAH 88-3
Enterococcus 12201 = assay: MIC, agar dilution; details: Enterococcus 12201
E. faecalis ATCC 29212 = assay: MIC, agar dilution; details: E. faecalis ATCC 29212
[9] = test system: tetracycline sensitive and resistant Gram-positive and Gram-negative bacteria; assay: In vitro antibacterial activity, summary in words of Table I
S. aureus ROSE (MP) = assay: MIC, agar dilution; details: S. aureus ROSE (MP)

Compound	MIC (E. coli UBMS 88-1 Tet B) [mg/L]	MIC [1] [mg/L]	MIC (E. coli PRP1 Tet A) [mg/L]	MIC (E. coli UBMS 89-1 Tet M) [mg/L]	MIC [2] [mg/L]	MIC (E. coli BAJ9003 IMP MUT) [mg/L]	MIC (E. coli #311 (MP)) [mg/L]	MIC (E. coli J3272 Tet D) [mg/L]	MIC (S. mariescens FPOR 8733) [mg/L]	MIC [3] [mg/L]	MIC (S. aureus NEMC 8769)	MIC (S. aureus UBMS 88-4) [mg/L]	MIC [4] [mg/L]	MIC [5] [mg/L]	MIC [6] [mg/L]	MIC (S. aureus UBMS 90-3) [mg/L]	MIC [7] [mg/L]	MIC (S. aureus IVES 2943) [mg/L]	MIC (S. aureus IVES 1 983) [mg/L]	MIC (S. aureus ATCC 29213) [mg/L]	also measured
[4S-(4alpha,12aalpha)]-4,7-bis(dimethylamino)-1,4,4a,5,5a,6,11,12a-octahydro-3,10, 12,12a-tetrahydroxy-1,11-dioxo-9-[[[(2pyridinylmethyl)amino]acetyl]amino-2-naphthacenecarboxamide dihydrochloride	16	2	32	8	16	1	8	8	> 32	> 32	8 mg/L	8	8	32	8	4	8	> 32	> 32	8	MIC (E. coli J3272 Tet C): 16 mg/L; MIC (E. coli J2175): 16 mg/L; MIC (E. coli UBMS 90-4 Tet M): 8 mg/L; MIC (E. coli UBMS 90-5): 16 mg/L; MIC (E. coli ATCC 25922): 8 mg/L; MIC (S. aureus SMITH (MP)): 4 mg/L; MIC [8]: 16 mg/L; MIC (Enterococcus 12201): 4 mg/L; MIC (E. faecalis ATCC 29212): 2 mg/L
CN(C)c1cc(NC(=O)CNCC(F)(F)F)c(O)c2c1CC1CC3C(N(C)C)C(O)=C(C(N)=O)C(=O)C3(O)C(O)=C1C2=O (stereo not drawn) [S, [4S-(4alpha,12aalpha)]-4,7-Bis(dimethylamino)-1,4,4a,5,5a,6,11,12a-octahydro-3,10, 12,12a-tetrahydroxy-1,11-dioxo-9-[[[2,2,2-trifluoroethyl)amino]acetyl]amino-2-naphthacenecarboxamide]	32 (≈ 52.3 µM)	16 (≈ 26.2 µM)		32 (≈ 52.3 µM)	> 32		> 32		> 32	> 32	4 mg/L (≈ 6.54 µM)	4 (≈ 6.54 µM)	8 (≈ 13.1 µM)	32 (≈ 52.3 µM)	16 (≈ 26.2 µM)	4 (≈ 6.54 µM)	4 (≈ 6.54 µM)	> 32	> 32	4 (≈ 6.54 µM)	MIC (E. coli J2175): > 32 mg/L; MIC (E. coli UBMS 90-5): > 32 mg/L; MIC (E. coli ATCC 25922): > 32 mg/L; MIC [8]: 16 mg/L (≈ 26.2 µM); MIC (Enterococcus 12201): 4 mg/L (≈ 6.54 µM); MIC (E. faecalis ATCC 29212): 2 mg/L (≈ 3.27 µM)
CN(C)c1cc(NC(=O)CNCC2CC2)c(O)c2c1CC1CC3C(N(C)C)C(O)=C(C(N)=O)C(=O)C3(O)C(O)=C1C2=O.Cl.Cl (stereo not shown) [K]	0.5	0.12	4	0.5	0.5	0.12		0.25	8	16	1 mg/L	0.5	1	4	1	0.5	0.5	8	8	1	MIC (S. aureus SMITH (MP)): 0.5 mg/L; activity against E. coli tetA, E. coli tetC and E. coli tetD [9]: good activity; in vitro activity against tetracycline resistant strains containing tetM and tetB resistance determinants ([9]; S. aureus UBMS 88-5, 90-1, 90-2, E. coli UBMS 89-1, 90-4, 88-1, TN10C tetB): excellent; activity against recently isolated bacteria from clinical sources compared with minocycline ([9]; clinical isolates): superior to that of minocycline; activity against susceptible strains compared with minocycline ([9]; susceptible strains): equallyas effective as minocycline
717S-(7alpha,10aalpha)]-N-[9-(Aminocarbonyl)4,7-bis(dimethylamino)-5,5a,6,6a,7,10,10a,12-octahydro-1,8,10a,11-tetrahydroxy-10,12-dioxo-2-naphthacenyl]-4-methyl-l-piperazineacetamide dihydrochloride	8	1	16	8	8	0.5	8	4	> 32	> 32		2	4	16	8	2	2	> 32	> 32	2	MIC (E. coli J3272 Tet C): 8 mg/L; MIC (E. coli J2175): 8 mg/L; MIC (E. coli UBMS 90-4 Tet M): 8 mg/L; MIC (E. coli UBMS 90-5): 8 mg/L; MIC (E. coli ATCC 25922): 8 mg/L; MIC (S. aureus ROSE (MP)): > 32 mg/L; MIC (S. aureus SMITH (MP)): 0.5 mg/L; MIC [8]: 16 mg/L; MIC (Enterococcus 12201): 2 mg/L; MIC (E. faecalis ATCC 29212): 1 mg/L
[4S-(4alpha,12aalpha)]-4,7-Bis(dimethylamino)-1,4,4a,5,5a,6,11,12a-octahydro-3,10, 12,12a-tetrahydroxy-1,11-dioxo-9-[[(undecylamino)acetyl]amino]-2-naphthacenecarboxamide dihydrochloride	32	2	32	16		1	8	32	> 32	> 32	0.5 mg/L	0.5	16	2	16	0.5	4			1	MIC (E. coli UBMS 90-4 Tet M): 32 mg/L; MIC (S. aureus ROSE (MP)): 16 mg/L; MIC (S. aureus SMITH (MP)): 0.5 mg/L; MIC (Enterococcus 12201): 4 mg/L; MIC (E. faecalis ATCC 29212): 2 mg/L
CCCCCCCNCC(=O)Nc1cc(N(C)C)c2c(c1O)C(=O)C1=C(O)[C@]3(O)C(=O)C(C(N)=O)=C(O)[C@@H](N(C)C)C3CC1C2 (stereo partly drawn) [J, [4S-(4alpha,12aalpha)]-4,7-Bis(dimethylamino)-9-[[(heptylamino)acetyl]amino]-l,4,4a,5,5a,6,11,12a-octahydro-3,10,12,12a-tetrahydroxy-1,11-dioxo-2-naphthacenecarboxamide dihydrochloride]	2	1	2	0.5	2	0.25	2	2	16	> 32	no	0.5	0.5	1	1		0.5	0.5	1	0.5	MIC (E. coli J3272 Tet C): 2 mg/L; MIC (E. coli J2175): 2 mg/L; MIC (E. coli UBMS 90-4 Tet M): 2 mg/L; MIC (E. coli UBMS 90-5): 2 mg/L; MIC (E. coli ATCC 25922): 2 mg/L; MIC (S. aureus ROSE (MP)): 2 mg/L; MIC [8]: 2 mg/L; MIC (Enterococcus 12201): 0.5 mg/L

Reference: US5328902A, “7-(substituted)-9-[(substituted glycyl)amido]-6-demethyl-6-deoxytetracyclines” (American Cyanamid Co., priority 1992, dated 1994)
